# Data from patent publication US20180221435A1, “ITCH TREATMENT USING A COMBINATION OF NEUROKININ-1, GASTRIN RELEASING PEPTIDE, AND GLUTAMATE RECEPTOR ANTAGONISTS” (The Regents of the University of California, priority 2013, published 2018).
# Where two headings read alike, the source gives them in different places.
# Legend:
# [1] = at the dose and in the condition of the same Table I line; cited from earlier work
# [2] = test system: histamine-evoked scratching; conditions: intrathecal L-733060 22.7 nmol or RC-3095 0.3 nmol, data adapted from Akiyama et al. 2013, cited from earlier work
# [3] = test system: superficial dorsal horn neurons; assay: In vivo single-unit recording, topical AITC-evoked firing, spinal superfusion of antagonists; parameters: species or system mice
# Procedure: (§1) Akiyama T et al., The Journal of neuroscience: the official journal of the Society for Neuroscience 29(20):6691-6699 (2009)]. Anesthesia was induced by sodium pentobarbital (60 mg/kg ip) and maintained by supplemental injections (10-20 mg/kg/hr). […] A tungsten microelectrode recorded single-unit activity in the lumbar spinal cord. A chemical search strategy [Akiyama T et al., Journal of neurophysiology 102(4):2176-2183 2009; […] Following mechanical stimulation, histamine (50 μg) was injected id within the same receptive field at a different location via a separate injection cannula. Following the id histamine injection, we tested the effects of antagonists for the receptors of NK1, GRP, or AMPA/kainate in the same manner as described above for chloroquine. […] Following the AITC application, we tested the effects of the NK-1 receptor antagonist, the AMPA/kainate receptor antagonist, or a combination of both antagonists in the same manner as described above for chloroquine. Action potentials were recorded to a computer and counted using Chart software (AD Instruments, Colorado Springs Colo.) and Spike2 software (CED Instruments). […] Mean peak responses elicited by noxious pinch were compared by one way repeated-measures ANOVA followed by post-hoc Bonferroni test, with p<0.05 set as significant. At the end of each experiment, an electrolytic lesion was made at the spinal cord recording site.
# [4] = test system: superficial dorsal horn neurons; assay: In vivo single-unit recording, id histamine-evoked firing, spinal superfusion of antagonists; parameters: species or system mice; conditions: for Percentages of dorsal horn units that exhibited a decrease of 70% or more in firing rate following spinal superfusion of antagonists: id histamine-evoked firing, superfusion 1 min, RC-3095 20 μM, L-733060 200 μM, CNQX 100 μM
# Procedure: as §1
# [5] = test system: superficial dorsal horn neurons; assay: In vivo single-unit recording, noxious pinch-evoked responses, spinal superfusion of antagonists; parameters: species or system mice; conditions: pinch at end of 1 min superfusion
# Procedure: Akiyama T et al., The Journal of neuroscience: the official journal of the Society for Neuroscience 29(20):6691-6699 (2009)]. Anesthesia was induced by sodium pentobarbital (60 mg/kg ip) and maintained by supplemental injections (10-20 mg/kg/hr). […] A tungsten microelectrode recorded single-unit activity in the lumbar spinal cord. A chemical search strategy [Akiyama T et al., Journal of neurophysiology 102(4):2176-2183 2009; […] Units were classified as wide dynamic range (WDR)-type if they responded in a graded manner to innocuous mechanical stimulation (brushing, cotton wisp) and noxious pinch, or nociceptive-specific (NS) if they responded to noxious pinch (and to the 55 mN von Frey stimulus) but not to the cotton wisp or brush stimuli. […] Akiyama T et al., The Journal of neuroscience: the official journal of the Society for Neuroscience 29(20):6691-6699 (2009)]. […] At the end of the antagonist superfusion, the noxious pinch stimulus was delivered again at the same site on the receptive field. Thirty minutes later, the noxious pinch stimulus was delivered in the same manner. Action potentials were recorded to a computer and counted using Chart software (AD Instruments, Colorado Springs Colo.) and Spike2 software (CED Instruments). […]
# [6] = test system: superficial dorsal horn neurons; assay: In vivo single-unit recording, id chloroquine-evoked firing, spinal superfusion of antagonists; parameters: species or system mice
# Procedure: (§2) The single-unit recording from the lumbar spinal cord was conducted as previously detailed [Akiyama T et al., Journal of neurophysiology 102(4):2176-2183 (2009); Akiyama T et al., The Journal of neuroscience: the official journal of the Society for Neuroscience 29(20):6691-6699 (2009)]. Anesthesia was induced by sodium pentobarbital (60 mg/kg ip) and maintained by supplemental injections (10-20 mg/kg/hr). A gravity-driven perfusion system allowed artificial cerebrospinal fluid (Krebs: 117 mM NaCl, 3.6 mM KCl, 2.5 mM CaCl2, 1.2 mM MgCl2, 1.2 mM NaH2PO4, 25 mM NaHCO3 and 11 mM glucose which was equilibrated with 95% 02 and 5% CO2 at 37° C.) to be superfused continually over the exposed lumbosacral spinal cord [Akiyama T et al., PloS one 6(7):e22665 (2011)]. A tungsten microelectrode recorded single-unit activity in the lumbar spinal cord. A chemical search strategy [Akiyama T et al., Journal of neurophysiology 102(4):2176-2183 2009; Akiyama T et al., The Journal of neuroscience: the official journal of the Society for Neuroscience 29(20):6691-6699 (2009)] was used to identify and isolate chloroquine-responsive units. Our search strategy was intended to maximize the chance of isolating a chloroquine-responsive neuron; it was assumed that such neurons either gave rise to ascending projections, or served as interneurons in segmental scratch-reflex circuitry, and no attempt was presently made to distinguish between these possibilities.
# Briefly, a small (˜0.25 μl) intradermal (id) microinjection of chloroquine (100 μg/μl) was made in the ventral hindpaw and a spontaneously active unit in the superficial lumbar dorsal horn (depth<300 um) was isolated. After the spontaneous activity had waned, chloroquine (1 μl, 100 μg/μl) was injected again at the same site through the same needle. […] Responses were usually recorded for at least 30 minutes, although in many cases unit firing declined over a shorter period.
# Action potentials were recorded to a computer and counted using Chart software (AD Instruments, Colorado Springs Colo.) and Spike2 software (CED Instruments). Ongoing responses elicited by chloroquine, histamine, or AITC were averaged at 20-second intervals before, during and after the antagonist application, and compared by one way repeated-measures analysis of variance (ANOVA) followed by post-hoc Bonferroni test, with p<0.05 set as significant. The mean firing rate was calculated over a 20-second period 40 seconds after the antagonist application, and compared by one way ANOVA followed by post-hoc Bonferroni test, with p<0.05 set as significant. The criterion for decrease in ongoing firing was >70% decrease below the ongoing activity elicited by pruritogen over a 20-second period 40 seconds after the antagonist application. Mean peak responses elicited by noxious pinch were compared by one way repeated-measures ANOVA followed by post-hoc Bonferroni test, with p<0.05 set as significant. At the end of each experiment, an electrolytic lesion was made at the spinal cord recording site. The spinal cord was postfixed in 10% buffered formalin, cut in 50 μm frozen sections, and examined under the light microscope to identify lesions.
# [7] = test system: superficial dorsal horn neurons; assay: Baseline activity of superficial dorsal horn neurons before and after antagonist application; format: in vivo, mice; conditions: ± SEM
# Procedure: as §2
# There was no significant effect of any of the antagonists on the baseline activity of superficial dorsal horn neurons that were subsequently show to respond to pruritogens. […] Values prior to, and after administration of each antagonist individually or in combination, are as follows. NK-1 antagonist L-733060: pre-application 0.88 Hz±0.23 (SEM), post-antagonist 0.72 Hz±0.19 (n=10). GRPR antagonist RC-3095: pre-application 0.54 Hz±0.54, post-antagonist: 0.53 Hz±0.53 (n=4). CNQX: pre-application 0.53 Hz±0.14, post-antagonist 0.64 Hz±0.21 (n=22). CNQX+L-733060: pre-application 0.52 Hz±0.17, post-antagonists 0.43 Hz±0.11 (n=26). CNQX+L-733060+RC-3095: pre-application 0.14 Hz±0.06, post-antagonists 0.17 Hz±0.06 (n=9).
# DRG cells = assay: Calcium imaging of DRG cells; conditions: 898 DRG cells; chloroquine 300 μM, histamine 100 μM, 30 sec; ratio increase more than 10%
structure (smiles),measurement,setting,value
COc1ccc(OC(F)(F)F)cc1CN[C@H]1CCCN[C@H]1c1ccccc1 [AV608],Side Effects,[1],well tolerated.
C[C@@H](O[C@H]1OCCN(Cc2n[nH]c(=O)[nH]2)[C@H]1c1ccc(F)cc1)c1cc(C(F)(F)F)cc(C(F)(F)F)c1 [Aprepitant],Side Effects,[1],generally mild.
COc1ccc(-n2nnnc2C(F)(F)F)cc1CN[C@H]1CCCN[C@H]1c1ccccc1 [GR205171],Side Effects,[1],well-tolerated
CC(=O)N1CCN([C@H]2CCN(C(=O)N(C)[C@H](C)c3cc(C(F)(F)F)cc(C(F)(F)F)c3)[C@@H](c3ccc(F)cc3C)C2)CC1 [GW679769],Side Effects,[1],"well tolerated,"
FC(F)(F)c1cc(CO[C@H]2CCCN[C@H]2c2ccccc2)cc(C(F)(F)F)c1 [L733060],histamine-evoked scratching (scratch bouts/30 minutes),[2]; listed as NK-1 antagonist,neither the NK-1 nor the GRPR antagonist attenuated
same,histamine-evoked scratching (scratch bouts/30 minutes),[2]; listed as NK-1 receptor antagonist,not affected
same,"AITC-evoked firing, effect of spinal superfusion",[3]; topical AITC 75%,numerically reduced
same,Percentages of dorsal horn units that exhibited a decrease of 70% or more in firing rate following spinal superfusion of antagonists,"[3]; topical AITC-evoked firing, superfusion 1 min, L-733060 200 μM, CNQX 100 μM",22% (2/9)
same,histamine-evoked response of NS units,"[4]; NS units, vs vehicle",failed to reduce
same,histamine-evoked response of WDR units,"[4]; WDR units, vs vehicle",failed to reduce
same,"histamine-evoked firing, effect of spinal superfusion",[4]; all units,not significantly different from vehicle
same,Percentages of dorsal horn units that exhibited a decrease of 70% or more in firing rate following spinal superfusion of antagonists,[4],33% (6/18)
same,Percentages of dorsal horn units that exhibited a decrease of 70% or more in firing rate following spinal superfusion of antagonists,[4]; listed as NK-1 antagonist,33%
same,"noxious pinch-evoked response, effect of spinal superfusion",[5],not reduced
same,chloroquine-evoked firing compared to vehicle superfusion,"[6]; 40-60 s of superfusion, normalized firing, vs vehicle",did not produce a significant reduction in firing compared to vehicle superfusion
same,chloroquine-evoked firing in NS cells,"[6]; NS units, vs vehicle",but not NS cells
same,chloroquine-evoked firing in WDR cells,"[6]; WDR units, vs vehicle",significantly reduced
same,"chloroquine-evoked firing, effect of spinal superfusion",[6]; relative to chloroquine-evoked response prior to spinal superfusion,significantly attenuated after the cessation of superfusion
same,"baseline neuronal firing rate, post-antagonist",[7]; averaged over 1 min following antagonist application,0.72 Hz
same,"baseline neuronal firing rate, pre-application",[7]; averaged over 1 min prior to antagonist application,0.88 Hz
CC(=O)N1N=C(c2ccc(N)cc2)c2cc3c(cc2C[C@H]1C)OCO3 [Talampanel],Side Effects,[1],"Mild (fatigue,"
O=c1[nH]c2cc(C(F)(F)F)c(N3CCOCC3)cc2n(CP(=O)(O)O)c1=O [ZK 200775],Side Effects,[1],"Sedation,"
CCN(CC)CCCC(C)Nc1ccnc2cc(Cl)ccc12 (stereo not drawn) [chloroquine],percentage of DRG cells imaged that responded,DRG cells,8.4%
NCCc1c[nH]cn1 [histamine],percentage of DRG cells imaged that responded,DRG cells,12.9%
